This is an account of results in ChEMBL document CHEMBL1201862, “PubChem BioAssay data set” (2004).

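Cells were grown in 96-well plates and exposed to each compound for 48 hours at five concentrations; endpoints were interpolated linearly between bracketing concentrations, or set to the highest concentration if not reached. Here, GI50 denotes the concentration required for 50% inhibition of growth.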 The source made the active and inactive calls. Rule as the data show it: active = GI50 up to about 1.1 µM and inactive = higher. Where a SMILES comes first, the peptide text is derived from it. The star is where a group is joined. CH2Cl = ClC* A value given as a limit tells only on which side of the number the result lay.

Some test systems named below: HCC 2998; HCT-15; HOP-92; IGROV-1; KM12; M19-MEL; NCI-H522; OVCAR-8; RPMI-8226; SF-268; SK-MEL-28; SK-OV-3; SNB-19; UO-31; DLD-1; RXF 393; Hs-578T; NCI/ADR-RES; PC-3; T47D.
Common to all, as to assay: inhibition of tumour cell growth, NCI panel, 48 h

Take `CC1=C2CCCC2C/C(=N/Nc2ccc([N+](=O)[O-])cc2[N+](=O)[O-])CC1` (centres undefined): the GI50 in the assay on HCC 2998 was > 100 µM (inactive); in the assay on HCT-15, over 100 µM; with HOP-92, > 100 µM (inactive); in the assay with IGROV-1 it was > 100 µM (inactive); in the assay with KM12, > 100 µM (inactive); in the assay on M19-MEL, > 100 µM (inactive). The GI50 in the assay with NCI-H522, in the assay with OVCAR-8, in the assay with RPMI-8226, in the assay on SF-268, in the assay on SK-MEL-28 and in the assay with SK-OV-3 was > 100 µM (inactive) in each case. In addition, the GI50 with SNB-19 and in the assay on UO-31 was > 100 µM (inactive) each time.

As for `[N-]=[N+]=Nc1ccc(S(=O)(=O)Oc2cc(OS(=O)(=O)c3ccc(N=[N+]=[N-])cc3)cc(OS(=O)(=O)c3ccc(N=[N+]=[N-])cc3)c2)cc1`, the GI50 in the assay on DLD-1 is > 100 µM (inactive); with HCC 2998 it was > 100 µM (inactive); with HCT-15, over 100 µM; in the assay on HOP-92, > 100 µM (inactive); in the assay on IGROV-1, > 100 µM (inactive); with KM12 it was > 100 µM (inactive). In addition, the GI50 in the assay with M19-MEL is > 100 µM (inactive); in the assay on NCI-H522 it was > 100 µM (inactive); in the assay with OVCAR-8, > 10 µM (inactive); in the assay with RPMI-8226, > 100 µM (inactive); in the assay with RXF 393 it was > 100 µM (inactive); in the assay on SF-268, > 100 µM (inactive). The GI50 in the assay with SK-MEL-28 is > 100 µM (inactive); with SNB-19, > 10 µM (inactive); with UO-31, > 100 µM (inactive).

Turning to `Cc1ccc2c(c1)NC(=O)C(N=[N+]=[N-])(c1ccccc1)C2=O` (centres undefined), the GI50 in the assay on DLD-1 is 43 µM (inactive); with HCC 2998, > 100 µM (inactive); with HCT-15, 21.5 µM; with HOP-92, 24.5 µM (inactive); with IGROV-1, 32.8 µM (inactive); in the assay with KM12, 15.2 µM (inactive). The GI50 in the assay with M19-MEL is 19.7 µM (inactive); with NCI-H522, 20.8 µM (inactive); with OVCAR-8, 27.2 µM (inactive); with SF-268 it was 45.2 µM (inactive); in the assay with SK-MEL-28, 45.1 µM (inactive); in the assay on SK-OV-3 it was 33.9 µM (inactive). Also, the GI50 in the assay on SNB-19 was 30.6 µM (inactive); in the assay on UO-31, 29 µM (inactive).

Take `C[C@]12CCC(=O)C=C1CC[C@@H]1C2CC[C@]2(C)Nc3c(cnn3-c3ccccc3)CC12` (some centres undefined): the GI50 in the assay with DLD-1 was > 100 µM (inactive); in the assay with HCC 2998 it was > 100 µM (inactive); in the assay with HCT-15, over 100 µM; in the assay with IGROV-1, > 100 µM (inactive); in the assay on KM12, > 10 µM (inactive); with M19-MEL, > 100 µM (inactive). Moreover, the GI50 with OVCAR-8, in the assay on RPMI-8226, in the assay with RXF 393, in the assay with SK-MEL-28, in the assay on SK-OV-3 and in the assay on UO-31 was > 100 µM (inactive) each time.

Turning to `N#Cc1ccccc1Nc1ccccc1S`, the GI50 in the assay on DLD-1 was 35.6 µM (inactive); with HOP-92 it was 35.1 µM (inactive); with IGROV-1, 26.9 µM (inactive); in the assay with KM12, 38.2 µM (inactive); in the assay on M19-MEL it was 39.4 µM (inactive); in the assay on OVCAR-8 it was 31.6 µM (inactive). Also, the GI50 was 18.9 µM (inactive) in the assay with RXF 393; 31.3 µM (inactive) with SF-268; 41.2 µM (inactive) with SK-MEL-28; 57.1 µM (inactive) with SK-OV-3; 22.5 µM (inactive) with SNB-19; 28.2 µM (inactive) in the assay with UO-31.

Consider `C=C1CC2(CCS(=O)(=O)c3ccccc32)OC1=O` (centres undefined), for which the GI50 with DLD-1 is 12.5 µM (inactive); in the assay on HCC 2998 it was 21.9 µM (inactive); with HCT-15, 11.9 µM; in the assay on HOP-92 it was 3.72 µM (inactive); in the assay with IGROV-1 it was 16.6 µM (inactive); in the assay on KM12, 16 µM (inactive). Further, the GI50 with M19-MEL was 17.5 µM (inactive); with NCI-H522, 2.82 µM (inactive); in the assay with RPMI-8226, 2.74 µM (inactive); with SF-268 it was 17.2 µM (inactive); in the assay on SK-MEL-28, 13.3 µM (inactive); with SK-OV-3, 17.6 µM (inactive). Further, the GI50 with SNB-19 was 10.2 µM (inactive); in the assay with UO-31, 13.2 µM (inactive).

In the case of `COc1ccc(N(C)CN(C)c2nc(N(C)C)nc(N(C)C)n2)cc1`, the GI50 in the assay with DLD-1 is > 100 µM (inactive); with HCT-15, over 100 µM; with HOP-92 it was > 100 µM (inactive); in the assay with IGROV-1, > 100 µM (inactive); with KM12, > 100 µM (inactive); in the assay with M19-MEL it was > 100 µM (inactive). Also, the GI50 with NCI-H522, with OVCAR-8, in the assay with RPMI-8226, with SF-268, in the assay on SK-MEL-28 and in the assay with SK-OV-3 was > 100 µM (inactive) throughout. The GI50 with SNB-19 and in the assay on UO-31 was > 100 µM (inactive) in each case.

Take `CCOc1ccc(NC(=O)CC2C(=O)Nc3ccccc3S2(=O)=O)cc1` (centres undefined): the GI50 with DLD-1 was > 100 µM (inactive); in the assay on HCC 2998 it was > 100 µM (inactive); in the assay with HCT-15, over 100 µM; in the assay with HOP-92, 13.3 µM (inactive); in the assay with IGROV-1 it was > 100 µM (inactive); in the assay with KM12 it was > 100 µM (inactive). Moreover, the GI50 is > 100 µM (inactive) with M19-MEL; > 100 µM (inactive) in the assay with NCI-H522; 39.4 µM (inactive) in the assay on OVCAR-8; > 100 µM (inactive) in the assay on RPMI-8226; 64.1 µM (inactive) in the assay with RXF 393; 42.7 µM (inactive) in the assay with SF-268. Also, the GI50 in the assay on SK-MEL-28 was > 100 µM (inactive); in the assay on SNB-19, 34.5 µM (inactive); with UO-31, > 100 µM (inactive).

For the compound `O=C1c2cccc3cccc(c23)C(=O)N1CCCN1CCN(CCCN2C(=O)c3cccc4cccc(c34)C2=O)CC1`, the GI50 in the assay with DLD-1 is > 100 µM (inactive); in the assay with HCC 2998 it was > 100 µM (inactive); in the assay on HCT-15, over 100 µM; in the assay with HOP-92, > 100 µM (inactive); with IGROV-1, > 100 µM (inactive); in the assay on KM12, > 100 µM (inactive). For the same compound, the GI50 in the assay with M19-MEL, in the assay on OVCAR-8, in the assay with RPMI-8226, in the assay on RXF 393, with SK-OV-3 and in the assay on SNB-19 was > 100 µM (inactive) throughout. Also, the GI50 in the assay with UO-31 was > 100 µM (inactive).

In the case of `COc1ccc(C)cc1-c1ccc(-c2cc(C)ccc2OC)o1`, the GI50 in the assay on DLD-1 was > 100 µM (inactive); in the assay with HCC 2998, > 100 µM (inactive); in the assay on HCT-15, over 100 µM; in the assay on HOP-92 it was 54.6 µM (inactive); in the assay on IGROV-1, > 100 µM (inactive); with KM12, > 100 µM (inactive). Besides, the GI50 with M19-MEL is 54.6 µM (inactive); in the assay with NCI-H522 it was > 100 µM (inactive); with OVCAR-8, > 100 µM (inactive); in the assay with RPMI-8226 it was > 100 µM (inactive); in the assay on SF-268 it was > 100 µM (inactive); in the assay with SK-MEL-28 it was > 100 µM (inactive). Besides, the GI50 in the assay on SK-OV-3, with SNB-19 and with UO-31 was > 100 µM (inactive) each time.

As to `CC(=O)NC1=C(NCCO)C(=O)c2ccccc2C1=O`, the GI50 is > 50 µM (inactive) in the assay on DLD-1; > 50 µM (inactive) with HCC 2998; over 50 µM in the assay with HCT-15; > 50 µM (inactive) in the assay with IGROV-1; > 50 µM (inactive) with KM12; 9.79 µM (inactive) in the assay on M19-MEL. For the same compound, the GI50 is 24.5 µM (inactive) in the assay on NCI-H522; > 50 µM (inactive) with OVCAR-8; > 50 µM (inactive) in the assay with RXF 393; > 50 µM (inactive) in the assay on SF-268; > 50 µM (inactive) with SK-MEL-28; > 50 µM (inactive) with SK-OV-3. Also, the GI50 in the assay on SNB-19 and in the assay on UO-31 was > 50 µM (inactive) in each case.

On to `CN1N=CSC12C(=O)N(c1ccccc1)C(=O)N2c1ccccc1` (centres undefined), for which the GI50 in the assay with DLD-1 was > 100 µM (inactive); in the assay with HCC 2998, > 100 µM (inactive); in the assay with HCT-15, over 100 µM; in the assay with IGROV-1, > 100 µM (inactive); in the assay on KM12, > 100 µM (inactive); in the assay on M19-MEL, > 100 µM (inactive). In addition, the GI50 in the assay on OVCAR-8, with RPMI-8226, in the assay with RXF 393, in the assay with SF-268, with SK-MEL-28 and with SK-OV-3 was > 100 µM (inactive) throughout. Moreover, the GI50 in the assay with SNB-19 and with UO-31 was > 100 µM (inactive) throughout.

For `CC1SC2=NC3=C(c4ccccc4C3=O)C(c3ccc(Cl)cc3)N2C1=O` (centres undefined), the GI50 in the assay with DLD-1 was > 100 µM (inactive); with HCC 2998, > 100 µM (inactive); in the assay with HCT-15 it was over 100 µM; in the assay on HOP-92, 22.3 µM (inactive); with IGROV-1, > 100 µM (inactive); in the assay with KM12, > 100 µM (inactive). Besides, the GI50 was > 100 µM (inactive) in the assay with M19-MEL; 25.1 µM (inactive) in the assay on NCI-H522; > 100 µM (inactive) with OVCAR-8; 64 µM (inactive) in the assay with RPMI-8226; > 100 µM (inactive) with SF-268; > 100 µM (inactive) in the assay with SK-MEL-28. For the same compound, the figures for the GI50 in the assay on SK-OV-3, with SNB-19 and in the assay with UO-31 were > 100 µM (inactive), > 100 µM (inactive) and 32.8 µM (inactive), respectively.

In the case of `CC(=O)NC(CC(C)C)C(=O)NC(Cc1ccccc1)C(=O)CCl` (stereo not drawn) (Ac-Leu-Phe-CH2Cl; configuration not given here), the GI50 is 14.9 µM (inactive) in the assay with HCC 2998; 3.16 µM in the assay on HCT-15; 5.78 µM (inactive) with HOP-92; 17.3 µM (inactive) with Hs-578T; 16.1 µM (inactive) with IGROV-1; 18.7 µM (inactive) with KM12. Also, the GI50 was 2.51 µM (inactive) with NCI-H522; 10.9 µM (inactive) in the assay on NCI/ADR-RES; 4.69 µM (inactive) in the assay on OVCAR-8; 14 µM (inactive) in the assay on PC-3; 2.69 µM (inactive) with RPMI-8226; 1.96 µM (inactive) in the assay on RXF 393. The GI50 is 17.9 µM (inactive) in the assay on SF-268; 10.6 µM (inactive) in the assay with SK-MEL-28; 18.1 µM (inactive) in the assay with SK-OV-3; 20 µM (inactive) in the assay on SNB-19; 7.82 µM (inactive) in the assay on T47D; 14.6 µM (inactive) with UO-31.
